Measured values published in US7626042B2, “O-substituted hydroxyaryl derivatives” (Institute of Medicinal Molecular Design, Inc., priority 2002, dated 2009).
Counter-ions that a name gives are not always drawn.

Tested on: NF-κB activation
Test: Inhibitory activity against NF-κB activation, luciferase reporter assay under TNF-α stimulation
Assay type: cell-based, human
Conditions: HepG2 cells, TNF-α 40 ng/ml, 4 hours; for inhibition at 1 µg/mL / inhibition at 10 µg/mL: Homo sapiens, read-out: Inhibitory Ratio of NF-κ B Activation(%)
Experimental: Inhibitory activity against NF-κB activation was measured by referring to the method of Hill et al. (Cell, (USA), in 1993, Vol. 73, No. 2, p. 395-406). Using a transfection reagent(Effectene; QIAGEN), the human hepatoma cell strain HepG2 was transfected with a plasmid (pNFκ Luc Reporter Plasmid; STRATAGENE) integrated with an oligonucleotide having five tandem copies of NF-κB binding sequences(TGGGGACTTTCCGC) on a upstream region of firefly luciferase gene (Luc) according to the QIAGEN's protocol, and the cells were incubated for 6 to 24 hours. Then the cells were cultured for 4 hours after the addition of TNF-α (40 ng/ml) in the presence of a test compound, and intracellular luciferase activity was measured by using PicaGene LT (TOYO INK MFG Co., Ltd.) and a chemical luminescence measurement apparatus(SPECTRAFluor Plus; TECAN). The inhibitory ratio was measured as a ratio relative to a value of the luciferase activity in the absence of the test compound.

SMILES | Inhibitory Ratio of NF-κ B Activation(%) (Drug Concentration 1 μg/mL) | Inhibitory Ratio of NF-κ B Activation(%) (Drug Concentration 10 μg/mL) | inhibition at 1 µg/mL (Drug Concentration 1 μg/mL) [%] | inhibition at 10 µg/mL (Drug Concentration 10 μg/mL) [%]
CC(C)(C)OC(=O)C[C@H](NC(=O)OC(C)(C)C)C(=O)Oc1ccc(Cl)cc1C(=O)Nc1cc(C(F)(F)F)cc(C(F)(F)F)c1 [Compound 30] | 96.4 | 97.0 | – | –
CC(C)(C)OC(=O)CC[C@H](NC(=O)OC(C)(C)C)C(=O)Oc1ccc(Cl)cc1C(=O)Nc1cc(C(F)(F)F)cc(C(F)(F)F)c1 [Compound 31, 2-[N-(tert-butoxycarbonyl)-γ-O-(tert-butyl)-α-L-glutamyl]oxy-5-chloro-N-[3,5-bis(trifluoromethyl)phenyl]benzamide] | 97.2 | 97.2 | – | –
N[C@@H](CCC(=O)O)C(=O)Oc1ccc(Cl)cc1C(=O)Nc1cc(C(F)(F)F)cc(C(F)(F)F)c1 [Compound 32] | 98.0 | 98.8 | – | –
CC(C)(C)OC(=O)NCCCC[C@H](NC(=O)OC(C)(C)C)C(=O)Oc1ccc(Cl)cc1C(=O)Nc1cc(C(F)(F)F)cc(C(F)(F)F)c1 [Compound 33, 5-chloro-2-[N^α,N^ε-di(tert-butoxycarbonyl)-L-lysyl]oxy-N-[3,5-bis(trifluoromethyl)phenyl]benzamide] | – | – | 96.6 | 98.6
Cl.Cl.NCCCC[C@H](N)C(=O)Oc1ccc(Cl)cc1C(=O)Nc1cc(C(F)(F)F)cc(C(F)(F)F)c1 [Compound 34] | 51.9 | 99.5 | – | –
CC(C)C[C@H](NC(=O)[C@H](Cc1ccccc1)NC(=O)OC(C)(C)C)C(=O)Oc1ccc(Cl)cc1C(=O)Nc1cc(C(F)(F)F)cc(C(F)(F)F)c1 [Compound 35, 2-{N-[N-(tert-butoxycarbonyl)-L-phenylalanyl]-L-leucyl}oxy-5-chloro-N-[3,5-bis(trifluoromethyl)phenyl]benzamide] | – | – | 96.9 | 98.3
CC(C)C[C@H](NC(=O)[C@@H](N)Cc1ccccc1)C(=O)Oc1ccc(Cl)cc1C(=O)Nc1cc(C(F)(F)F)cc(C(F)(F)F)c1.Cl [Compound 36] | 97.8 | 98.7 | – | –
CC(C)C[C@H](NC(=O)[C@H](CC(=O)OC(C)(C)C)NC(=O)OC(C)(C)C)C(=O)Oc1ccc(Cl)cc1C(=O)Nc1cc(C(F)(F)F)cc(C(F)(F)F)c1 [Compound 37, 2-{N-[N-(tert-butoxycarbonyl)-β-O-(tert-butyl)-α-L-aspartyl]-L-leucyl}oxy-5-chloro-N-[3,5-bis(trifluoromethyl)phenyl]benzamide] | 96.6 | 98.1 | – | –
CC(C)C[C@H](NC(=O)[C@@H](N)CC(=O)O)C(=O)Oc1ccc(Cl)cc1C(=O)Nc1cc(C(F)(F)F)cc(C(F)(F)F)c1.Cl [Compound 38] | 97.8 | 98.6 | – | –
CC(C)C[C@H](NC(=O)[C@H](CCCCNC(=O)OC(C)(C)C)NC(=O)OC(C)(C)C)C(=O)Oc1ccc(Cl)cc1C(=O)Nc1cc(C(F)(F)F)cc(C(F)(F)F)c1 [Compound 39, 2-{N-[N^α,N^ε-di(tert-butoxycarbonyl)-L-lysyl]-L-leucyl}oxy-5-chloro-N-[3,5-bis(trifluoromethyl)phenyl]benzamide] | – | – | 96.7 | 98.4
CC(C)C[C@H](NC(=O)[C@@H](N)CCCCN)C(=O)Oc1ccc(Cl)cc1C(=O)Nc1cc(C(F)(F)F)cc(C(F)(F)F)c1.Cl.Cl [Compound 40] | 96.2 | 97.5 | – | –
CC(C)C[C@H](N)C(=O)N[C@@H](Cc1ccccc1)C(=O)Oc1ccc(Cl)cc1C(=O)Nc1cc(C(F)(F)F)cc(C(F)(F)F)c1 [Compound 41, 5-Chloro-2-[N-(L-leucyl)-L-phenylalanyl]oxy-N-[3,5-bis(trifluoromethyl)phenyl]-benzamide hydrochloride] | – | – | 91.4 | 99.1
N[C@@H](CC(=O)O)C(=O)N[C@@H](Cc1ccccc1)C(=O)Oc1ccc(Cl)cc1C(=O)Nc1cc(C(F)(F)F)cc(C(F)(F)F)c1 [Compound 42, 2-[N-(α-L-aspartyl)-L-phenylalanyl]oxy-5-chloro-N-[3,5-bis(trifluoromethyl)-phenyl]benzamide hydrochloride] | – | – | 92.7 | 96.9
COC(=O)Oc1ccc(Cl)cc1C(=O)Nc1cc(C(F)(F)F)cc(C(F)(F)F)c1 [Compound 43, 5-Chloro-2-(methoxycarbonyl)oxy-N-[3,5-bis(trifluoromethyl)phenyl]benzamide] | – | – | 94.9 | 97.6
CS(=O)(=O)Oc1ccc(Cl)cc1C(=O)Nc1cc(C(F)(F)F)cc(C(F)(F)F)c1 [Compound 44] | 85.9 | 98.6 | – | –
CCCS(=O)(=O)Oc1ccc(Cl)cc1C(=O)Nc1cc(C(F)(F)F)cc(C(F)(F)F)c1 [Compound 45] | 84.7 | 95.4 | – | –

SMILES | Inhibitory Ratio of NF-κ B Activation(%) (Drug Concentration 1 μg/mL) | Inhibitory Ratio of NF-κ B Activation(%) (Drug Concentration 10 μg/mL) | inhibition at 1 µg/mL (Drug Concentration 1 μg/mL) [%] | inhibition at 10 µg/mL (Drug Concentration 10 μg/mL) [%]
CC(C)S(=O)(=O)Oc1ccc(Cl)cc1C(=O)Nc1cc(C(F)(F)F)cc(C(F)(F)F)c1 [Compound 46] | 89.5 | 96.3 | – | –
Cc1ccc(S(=O)(=O)Oc2ccc(Cl)cc2C(=O)Nc2cc(C(F)(F)F)cc(C(F)(F)F)c2)cc1 [Compound 47] | 84.7 | 92.5 | – | –
CN(C)S(=O)(=O)Oc1ccc(Cl)cc1C(=O)Nc1cc(C(F)(F)F)cc(C(F)(F)F)c1 [Compound 48] | 37.9 | 90.4 | – | –
O=C(Nc1cc(C(F)(F)F)cc(C(F)(F)F)c1)c1cc(Cl)ccc1OS(=O)(=O)O [Compound 49] | 80.1 | 99.0 | – | –
O=C(Nc1cc(C(F)(F)F)cc(C(F)(F)F)c1)c1cc(Cl)ccc1OP(=O)(OCc1ccccc1)OCc1ccccc1 [Compound 50, 5-chloro-2-(dibenzylphosphono)oxy-N-[3,5-bis(trifluoromethyl)phenyl]benzamide] | – | – | 90.7 | 97.1
O=C(Nc1cc(C(F)(F)F)cc(C(F)(F)F)c1)c1cc(Cl)ccc1OP(=O)(O)O [Compound 51, 5-chloro-2-phosphonooxy-N-[3,5-bis(trifluoromethyl)phenyl]benzamide] | – | – | 89.7 | 96.6
O=C(Nc1cc(C(F)(F)F)cc(C(F)(F)F)c1)c1cc(Cl)ccc1OP(=O)([O-])O.[Na+] [Compound 52] | 76.3 | 96.5 | – | –
COc1ccccc1NC(=O)c1cc2cc(Br)ccc2cc1OP(=O)(O)O [Compound 53] | 21.5 | 92.0 | – | –
CC(C)NC(=O)Oc1ccc(Cl)cc1C(=O)Nc1cc(C(F)(F)F)cc(C(F)(F)F)c1 [Compound 54] | 96.0 | 98.0 | – | –
O=C(NCc1ccccc1)Oc1ccc(Cl)cc1C(=O)Nc1cc(C(F)(F)F)cc(C(F)(F)F)c1 [Compound 55] | 97.1 | 99.1 | – | –
CCOC(=O)CNC(=O)Oc1ccc(Cl)cc1C(=O)Nc1cc(C(F)(F)F)cc(C(F)(F)F)c1 [Compound 56, 5-chloro-2-{N-[(ethoxycarbonyl)methyl]carbamoyl}oxy-N-[3,5-bis(trifluoromethyl)-phenyl]benzamide] | – | – | 96.8 | 98.9
O=C(O)CNC(=O)Oc1ccc(Cl)cc1C(=O)Nc1cc(C(F)(F)F)cc(C(F)(F)F)c1 [Compound 57, 2-[N-(carboxymethyl)carbamoyl]oxy-5-chloro-N-[3,5-bis(trifluoromethyl)phenyl]-benzamide] | – | – | 95.4 | 97.2
COC(=O)[C@H](C)NC(=O)Oc1ccc(Cl)cc1C(=O)Nc1cc(C(F)(F)F)cc(C(F)(F)F)c1 [Compound 58] | 97.9 | 98.8 | – | –
COC(=O)[C@H](Cc1ccccc1)NC(=O)Oc1ccc(Cl)cc1C(=O)Nc1cc(C(F)(F)F)cc(C(F)(F)F)c1 [Compound 59] | 96.2 | 97.8 | – | –
COC(=O)[C@H](COC(C)(C)C)NC(=O)Oc1ccc(Cl)cc1C(=O)Nc1cc(C(F)(F)F)cc(C(F)(F)F)c1 [Compound 60] | 97.7 | 98.9 | – | –
